What was measured:
conscious BOO rats = assay: Cystometric parameters in conscious bladder outlet obstruction (BOO) rats; assay type: in vivo, rat
Method: Test substance effects were compared to those of the reference substance, mirabegron, marketed for overactive bladder.
• At W-6, a partial ligature of the urethra was performed. • At W-6, during 3 consecutive days, rats were treated daily with gentamycin and Ketofen® The bladder was emptied manually once a day. • From W-6 to W-1 animals were monitored and weighed once per week. • At W0 (D-2), catheters were implanted under isoflurane anesthesia. • At D0, cystometry was performed.
Appropriate amount of Cpd (IA) was weighed and dissolved in vehicle to obtain the dosing solution with the target concentration of 3 mg/mL (as free base). […]
[…] Mirabegron (from Kemprotec) was prepared fresh on the day of administration at a final concentration of 2 mg/mL (free base form). Appropriate mass of mirabegron was weighed and dissolved in vehicle (0.5% MC) at room temperature.

[1] = test system: rhythmic bladder contractions (RBC) in anesthetized female rats; assay: Isovolumetric model: rhythmic bladder contractions (RBC), cystometry; assay type: in vivo, rat; conditions: for Inhibition time: after i.v.; for RBC amplitude, basal / RBC frequency, basal: basal period −30/0 min before i.v. administration, group mean
Text: In rats, under isovolumetric condition, bladder distension induced rhythmic bladder contractions (RBC) (Aizawa et al, (2015) Effects of L-arginine, mirabegron, and oxybutynin on the primary bladder afferent nerve activities synchronized with reflexic, rhythmic bladder contractions in the rat. Neurourology & Urodynamics 34:368-374). This isovolumetric model allows the evaluation of compound on RBC. It is a closed system where the bladder is slowly infused through a urethral catheter with saline until the occurrence of spontaneous rhythmic bladder contractions.
Test substance effects were compared to that of the reference substance, tolterodine, an […], marketed for overactive bladder in humans.
Protocol: • Animals were anesthetized with urethane (i.p.). • Ureters were ligated and sectioned close to the kidneys. • Intravesical catheter was inserted into the bladder though the urinary meatus. • Urinary meatus was closed. • A catheter was inserted into the jugular vein for compound administration. • Bladder was filled with saline until the occurrence of RBC. • After 30 min basal period, compounds were administered as described below. • The effect of the test substances was followed by 1-hour post administration.
Rats were anesthetized with an intraperitoneal administration of urethane (1 g/kg). The ureters were ligated and sectioned close to the kidneys. A catheter (0.30 and 0.70 mm of inner and outer diameters, respectively) was inserted through the urinary meatus into the bladder before urethral ligature. Another catheter (0.58 and 0.96 mm of inner and outer diameters, respectively) was inserted into the jugular vein for intravenous (i.v.) administration.
For all group, animals were treated by i.v. route (1 mL/kg) (slow bolus) after the basal period.
The vesical catheter was connected via a T-tube to a strain gauge (to measure intra-vesical pressure) and to a syringe. Isovolumetric bladder contractions were induced by stepwise injections of physiological saline at room temperature (100 μL every 5 min) until stable RBC occurred. Vesical pressure was continuously recorded. After a 30 min control period (basal values), substances or vehicle were i.v. administered. The effects of substances were followed during 60 min after administration. At the end of the experiments, animals were sacrificed by cervical dislocation.
The following parameters were analyzed: • Amplitude of RBC (mmHg) • Frequency of RBC (number/30 min) • Time of inhibition (sec)
The % variation from the basal values were calculated for RBC frequency and amplitude.
Statistical analysis and graphs were performed using GraphPad Prism® (GraphPad Software Inc., La Jolla, CA, USA). A p value <0.05 was accepted for statistical significance.

[2] = 3 mg/kg i.v., 0-90 min entire period
[3] = 3 mg/kg i.v., 60-90 min interval period
[4] = i.g., 60-90 min interval period
[5] = 0/60 min after i.v., Cpd (IA) 3 mg/kg (n=8), tolterodine 1 mg/kg, mean
[6] = 0/60 min after i.v., Cpd (IA) 3 mg/kg, tolterodine 1 mg/kg, mean
[7] = 0/60 min after i.v., Cpd (IA) 3 mg/kg, tolterodine 1 mg/kg, mean, listed as compound of formula (IA)
[8] = listed as compound of formula (IA)
[9] = i.v., Cpd (IA) 3 mg/kg, tolterodine 1 mg/kg, vs basal
[10] = i.v., Cpd (IA) 3 mg/kg, tolterodine 1 mg/kg, vs vehicle

## O=C(O)c1nc2ccccc2n([C@H]2C[C@H]3CCC[C@@H](C2)N3C2CC3CCCC(C3)C2)c1=O (stereo partly drawn) [Cpd (IA)]
Conscious BOO rats; [2]
  AM (mmHg or % variation), effect versus vehicle: not significantly modified
  AM, effect versus basal: did not significantly modify
  BC expressed in % variation from basal, effect versus vehicle: significantly decreased
  BC expressed in mL, effect versus vehicle: no significant difference
  NVC amplitude (mmHg and % variation), effect versus vehicle: not significantly modified
  NVC amplitude, effect versus basal: did not modify
  NVC frequency (NVC/min or % variation), effect versus vehicle: not significantly modified
  NVC frequency, effect versus basal: did not affect
  ThP expressed in mmHg, effect versus vehicle: not significantly modified
  ThP, effect versus basal: no significant effect
Conscious BOO rats; 3 mg/kg i.v., 0-90 min entire period, p=0.0504
  ThP expressed in % variation from basal, effect versus vehicle: decreased after Cpd (IA) treatment, the p value was close to the significance
Conscious BOO rats; [3]
  AM (mmHg or % variation), effect versus vehicle: no effect
  AM, effect versus basal: did not significantly modify
  BC (mL and % variation), effect versus vehicle: no significant difference
  NVC amplitude (mmHg and % variation), effect versus vehicle: not significantly modified
  NVC amplitude, effect versus basal: without any effect
  NVC frequency (NVC/min or % variation), effect versus vehicle: unaffected
  NVC frequency, effect versus basal: no significant effect
  ThP expressed in % variation from basal, effect versus vehicle: significantly decreased
  ThP expressed in mmHg, effect versus vehicle: not significantly modified
  ThP, effect versus basal: significantly decreased
Conscious BOO rats; Cpd (IA) 3 mg/kg i.v., 0-90 min entire period
  BC, effect versus basal: did not significantly modify
Conscious BOO rats; Cpd (IA) 3 mg/kg i.v., 60-90 min interval period
  BC, effect versus basal: neither vehicle nor Cpd (IA) had a significant effect
Conscious BOO rats; Cpd (IA) 30 mg/kg i.g., 0-90 min entire period, vehicle 11±6
  % of variation from basal values of BC: −13±6%
Conscious BOO rats; i.g., 0-90 min entire period
  AM (mmHg or % variation), effect versus vehicle: not significantly modified
  AM, effect versus basal: did not significantly modify
  BC expressed in % variation from basal, effect versus vehicle: significantly decreased
  BC expressed in mL, effect versus vehicle: no significant difference
  NVC amplitude expressed in % variation from basal, effect versus vehicle: remained unaffected
  NVC amplitude expressed in mmHg, effect versus vehicle: not significantly modified
  NVC amplitude, effect versus basal: did not modify
  NVC frequency (NVC/min or % variation), effect versus vehicle: not significantly modified
  NVC frequency, effect versus basal: did not affect
  ThP expressed in % variation from basal, effect versus vehicle: significantly decreased
  ThP expressed in mmHg, effect versus vehicle: not significantly modified
  ThP, effect versus basal: did not modify
Conscious BOO rats; [4]
  AM (mmHg or % variation), effect versus vehicle: no effect
  AM, effect versus basal: did not significantly modify
  BC expressed in % variation from basal, effect versus vehicle: significantly decreased
  BC expressed in mL, effect versus vehicle: no significant difference
  NVC amplitude expressed in % variation from basal, effect versus vehicle: not significantly modified
  NVC amplitude expressed in mmHg, effect versus vehicle: not significantly modified
  NVC amplitude, effect versus basal: without any effect
  NVC frequency (NVC/min or % variation), effect versus vehicle: unaffected
  NVC frequency, effect versus basal: did not affect
  ThP expressed in % variation from basal, effect versus vehicle: significantly decreased
  ThP expressed in mmHg, effect versus vehicle: not significantly modified
  ThP, effect versus basal: significantly decreased
Conscious BOO rats; i.g., Cpd (IA) 30 mg/kg, mirabegron 10 mg/kg, 0-90 min entire period
  BC, effect versus basal: significantly decreased
Conscious BOO rats; i.g., Cpd (IA) 30 mg/kg, mirabegron 10 mg/kg, 60-90 min interval period
  BC, effect versus basal: significantly decreased
Conscious BOO rats; i.v., conclusions
  all other cystometric parameters (than BC and ThP), effect versus vehicle: no effect
[1]; [5]
  RBC amplitude, % variation from basal: 1.25%
  RBC amplitude, treated period: 27.57 mmHg
[1]; [6]
  RBC frequency, % variation from basal: ~88.57%
  RBC frequency, treated period: 3.05 nb of RBC/30 min
[1]; [7]
  RBC frequency, % variation from basal: -88.57±3.68%
  RBC frequency, treated period: 3.05±1.02 nb of RBC/30 min
[1]; Cpd (IA) 3 mg/kg, tolterodine 1 mg/kg, mean
  Inhibition time: 2860.51 s
[1]; Cpd (IA) 3 mg/kg, tolterodine 1 mg/kg, mean, listed as compound of formula (IA)
  Inhibition time: 2860.51 ± 272.38 s
[1]
  RBC amplitude, basal: 29.49 mmHg
  RBC frequency, basal: 25.90 nb of RBC/30 min
[1]; [8]
  RBC amplitude, basal: 29.49±2.46 mmHg
  RBC frequency, basal: 25.90±1.36 nb of RBC/30 min
[1]; conclusion of Example 1
  bladder afferent activity: significantly decreased
[1]; [9]
  RBC amplitude, effect versus basal: No significant effect
  RBC frequency, effect versus basal: significantly decreased
[1]; [10]
  RBC amplitude (% variation), effect versus vehicle: did not significantly modify
  RBC frequency (% variation), effect versus vehicle: significantly decreased
  time of inhibition, effect versus vehicle: significantly increased

From patent US20250381180A1, “METHODS OF TREATING OR PREVENTING OVERACTIVE BLADDER SYNDROME” (Purdue Pharma L.P., priority 2022, published 2025)
